Legend:
[1] = test system: pro-inflammatory cytokines I1-1β, I1-6, TNF-α; experiment: Ileal cytokine concentration, pro-inflammatory; format: in vivo, pig; conditions: 10 mmol/L, compared to standard PN (s-PN)
Excerpt: (§1) Neonatal Yorkshire/Landrace cross bred piglets (n=72; six at a time from the same litter, repeating 12 times) were obtained from Oak Hill Genetics (Ewing, Ill.) after 48-hour sow reared for colostrum consumption and iron supplementation.
(§2) The influence of the respective supplements on inflammation was investigated by determining Il-6, Il-1beta, TNF-alpha and Il-10 serum levels in the intervention groups compared to EN and PN according to Milo et al., Effects of Short-Chain Fatty Acid-Supplemented Total Parenteral Nutrition on Intestinal Pro-Inflammatory Cytokine Abundance. Digestive Diseases and Sciences 2002; 47:2049-2055. Jejunal and ileal samples were homogenized in double-distilled water, and the Bradford protein assay (Biorad, Hercules, Calif., USA) was performed on homogenate and plasma samples. Protein (30 μg) from each sample was denatured by boiling, and proteins were separated by size using 12.5% sodium dodecyl sulfate polyacrylamide gel electrophoresis. Separated proteins were transferred to polyvinylidene difluoride membranes (Biorad) using a semidry transfer apparatus (Biorad). Western blot analysis for TNF-alpha, IL-1beta, Il-10 and IL-6 was performed using porcine-specific polyclonal antibodies (Endogen, Woburn, Mass., USA). A mouse anti-pig monoclonal TNF-alpha antibody was used to detect TNF-alpha ([…]). Rabbit anti-pig polyclonal antibodies specific for IL-1beta and IL-6 were used to detect IL-1beta (17,500 kDa), Il-10 (18,600 kDa) and IL-6 (26,000 kDa). Membranes were developed using the Opti-4CN kit (Biorad) and photographed using the FOTO/Analyst Image Analysis System (Fotodyne, Inc., Hartland, Wis., USA). Densitometry of TNF-alpha, IL-1beta, IL-6, and Il-10 was performed using Collage Image Analysis Software 4.0 (Fotodyne, Inc.). Results are shown in FIG. 15 (Il-6), FIG. 16 (Illbeta), FIG. 17 (TNF-alpha) and FIG. 18 (Il-10).

Il-6 = experiment: Serum cytokine quantification, Il-6; format: in vivo, pig; conditions: 10 mmol/L TPN (Group C)
Excerpt: as §1
as §2, with “Rabbit anti-pig polyclonal antibodies specific for IL-1beta and IL-6 were used to detect IL-1beta (17,500 kDa), Il-10 (18,600 kDa) and IL-6 (26,000 kDa). Membranes were developed using the Opti-4CN kit (Biorad) and photographed using the FOTO/Analyst Image Analysis System (Fotodyne, Inc., Hartland, Wis., USA). Densitometry of TNF-alpha, IL-1beta, IL-6, and Il-10 was performed using Collage Image Analysis Software 4.0 (Fotodyne, Inc.). Results are shown in FIG. 15 (Il-6), FIG. 16 (Illbeta), FIG. 17 (TNF-alpha) and FIG. 18 (Il-10).” left out

[2] = test system: Neonatal Yorkshire/Landrace cross bred piglets; experiment: Intestinal histomorphology: villus height and crypt depth; format: in vivo, pig; set-up: key to Villus (total) / Crypt (total): + denotes a positive effect (compared to standard PN); ++ a very positive effect; − denotes no difference; key to Total villus height / Total crypt depth: +++ indicate P < 0.01; ++ indicates P < 0.05; + indicates positive trends; = denotes no significant P value; − denotes negative trends
Experimental: as §1
Formalin-fixed intestinal samples were embedded in paraffin, sliced to approximately 5-μm thickness with a microtome and stained with hematoxylin and eosin (FIG. 6). Villus height, midvillus width, and crypt depth were measured by using a Nikon Optiphot-2 microscope (Nikon, Melville, N.Y.) and ImagePro Express software (Version 4.5; Media Cybernetics, Inc, Silver Spring, Md.) in 8 to 10 well-oriented villi and crypts. Villus surface area (villus height×midvillus width) was also calculated. In addition, intestinal segment circumference was measured to estimate intestinal surface area. The results are provided in FIGS. 7 through 12 (see there for details). […] The Table summarizes the average difference (in % of each Intervention Group (A, B, C, D) versus the PN Group) of the villus height and the crypt depth in the different sections of the gut, i.e. duodenum, jejunum, ileum and colon. The Intervention Groups show an improved villus height compared to the s-PN Group.

Il-1beta = experiment: Serum cytokine quantification, Il-1beta; format: in vivo, pig; conditions: 10 mmol/L TPN (Group C)
Excerpt: as §1
as §2, with “Rabbit anti-pig polyclonal antibodies specific for IL-1beta and IL-6 were used to detect IL-1beta (17,500 kDa), Il-10 (18,600 kDa) and IL-6 (26,000 kDa). Membranes were developed using the Opti-4CN kit (Biorad) and photographed using the FOTO/Analyst Image Analysis System (Fotodyne, Inc., Hartland, Wis., USA). Densitometry of TNF-alpha, IL-1beta, IL-6, and Il-10 was performed using Collage Image Analysis Software 4.0 (Fotodyne, Inc.). Results are shown in FIG. 15 (Il-6), FIG. 16 (Illbeta), FIG. 17 (TNF-alpha) and FIG. 18 (Il-10).” left out

[3] = cited from earlier work
[4] = test system: anti-inflammatory cytokines I1-10; experiment: Jejunal cytokine concentration, anti-inflammatory; format: in vivo, pig; conditions: 10 mmol/L, compared to standard PN (s-PN)
Excerpt: as §1, §2

[5] = test system: pro-inflammatory cytokines I1-1β, I1-6, TNF-α; experiment: Jejunal cytokine concentration, pro-inflammatory; format: in vivo, pig; conditions: 10 mmol/L, compared to standard PN (s-PN)
Excerpt: as §1, §2

Il-10 = experiment: Serum cytokine quantification, Il-10; format: in vivo, pig; conditions: 10 mmol/L TPN (Groups A, C, D)
Excerpt: as §1, §2

[6] = test system: anti-inflammatory cytokines I1-8, I1-10; experiment: Ileal cytokine concentration, anti-inflammatory; format: in vivo, pig; set-up: key: +++ indicate P < 0.01; ++ indicates P < 0.05; + indicates positive trends; = denotes no significant P value; − denotes negative trends; conditions: 10 mmol/L, compared to standard PN (s-PN)
Excerpt: as §1, §2

[7] = test system: Pro-inflammatory cytokines; experiment: Pro-inflammatory cytokines, summary (site not stated); format: in vivo, pig; set-up: key: + denotes a positive effect (compared to standard PN); ++ a very positive effect; − denotes no difference; conditions: 10 mmol/L in PN, compared to standard PN
Excerpt: as §1, §2

TNF-alpha = experiment: Serum cytokine quantification, TNF-alpha; format: in vivo, pig; conditions: 10 mmol/L TPN (Group C)
Excerpt: as §1
as §2, with “Rabbit anti-pig polyclonal antibodies specific for IL-1beta and IL-6 were used to detect IL-1beta (17,500 kDa), Il-10 (18,600 kDa) and IL-6 (26,000 kDa). Membranes were developed using the Opti-4CN kit (Biorad) and photographed using the FOTO/Analyst Image Analysis System (Fotodyne, Inc., Hartland, Wis., USA). Densitometry of TNF-alpha, IL-1beta, IL-6, and Il-10 was performed using Collage Image Analysis Software 4.0 (Fotodyne, Inc.). Results are shown in FIG. 15 (Il-6), FIG. 16 (Illbeta), FIG. 17 (TNF-alpha) and FIG. 18 (Il-10).” left out

[8] = test system: metastatic colorectal cancer patients; conditions: aqueous solution, pH 7.7, phase I clinical trial; cited from earlier work
[9] = 10 mmol/L TPN (Groups A, C, D), sum over sections
[10] = 10 mmol/L in PN, all sections, compared to standard PN
[11] = 10 mmol/L, compared to standard PN (s-PN)

## L-arginine, butanoate (3:4) [Arginine butyrate]
[1]
  Ileal Cytokine Concentration (less pro-inflammatory cytokines I1-1β, I1-6, TNF-α): ++ (++ indicates P < 0.05)
Il-6
  serum levels of Il-6 (FIG. 15): significantly lower than in the standard PN group
[2]; 10 mmol/L TPN
  average duodenal crypt length (crypt depth, FIG. 8): slightly better even than Groups A and D
  average duodenal villous length (FIG. 7): only slightly below the mean values determined for Groups B and D
  average ileal crypt depth (FIG. 11): close behind
  average jejunal crypt depth (FIG. 10): gave the best results
  average jejunal villous length (FIG. 9): gave the best results
[2]; 10 mmol/L TPN (Group C), versus other groups
  improvement of the gut architecture in total: most prominent improvement of the gut architecture
[2]; 10 mmol/L TPN (Groups A, C, D)
  % Δ from PN, Colon C (crypt depth): +22%
  % Δ from PN, Duodenum C (crypt depth): +15%
  % Δ from PN, Duodenum V (villus height): +35%
  % Δ from PN, Ileum C (crypt depth): +7%
  % Δ from PN, Ileum V (villus height): +16%
  % Δ from PN, Jejunum C (crypt depth): +3%
  % Δ from PN, Jejunum V (villus height): +26%
  % Δ from PN, Total Total (crypt + villus): +124%
[2]; [9]
  % Δ from PN, Total C (crypt depth): +47%
  % Δ from PN, Total V (villus height): +77%
[2]; [10]
  Crypt (total): +
  Villus (total): +
[2]; [11]
  Total crypt depth: +
  Total villus height: +
[2]; versus the Group which obtained standard PN
  gut architecture, systemic and local inflammation and systemic and local immunity (overall): especially beneficial
Il-1beta
  serum levels of Il1-beta (FIG. 16): significantly lower than in the standard PN group
[3]; human, in vivo
  clearance rate: 93.6 ± 31.9 mL/min/kg
[3]; infusion rate of 2000 mg/kg/day, patients with hemoglobinopathy
  steady state concentration: 15.7 ± 4.8 mg/L
[4]
  Jejunal Cytokine Concentration (more anti-inflammatory cytokines I1-8, I1-10): ++ (++ indicates P < 0.05)
[5]
  Jejunal Cytokine Concentration (less pro-inflammatory cytokines I1-1β, I1-6, TNF-α): +++ (+++ indicate P < 0.01)
Il-10
  serum levels of Il-10 (FIG. 18): lower than in the standard PN Group P
[6]
  Ileal Cytokine Concentration (more anti-inflammatory cytokines I1-8, I1-10): +^4
[7]
  Pro-inflammatory cytokines: ++
TNF-alpha
  serum levels of TNF-alpha (FIG. 17): lower than in the other Study (or intervention) Groups
[8]
  tolerated dose: 3 g/kg/day

From patent US20220160669A1, “PARENTERAL NUTRITION FORMULATION” (BAXTER INTERNATIONAL INC., priority 2020, published 2022)
